Data as given in patent US7348425B2, “Inhibitors of HCV replication” (Bristol-Myers Squibb Company, priority 2004, dated 2008).

Legend:
[1] = target: T1, HCV NS5B RdRp genotype 1b (Hepatitis C virus genotype 1b, UniProt Q9WMX2); assay: Modified HCV NS5B RdRp enzyme assay (with preincubation); type: biochemical
T1 construct: The protein was expressed with an 18 amino acid C-terminal truncation to enhance the solubility; made in house; host or cells: E. coli BL21 (DE3), pET21a
Outline: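 Seven-point IC50s were derived from SPA-based ³H-UTP incorporation after 4 h at 30 °C (Hepes pH 7.5, 2% DMSO). Compound was first mixed with 14 nM Δ18 NS5B genotype 1b enzyme. Then 0.2 nM polyA, 0.29 μM UTP and bead-bound oligo-dT12 (20 nM) were added.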

HCV replicon = HCV replicon FRET assay; type: cell-based; details: Hepatitis C virus; FRET assay; read-out: EC50
Outline: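 Replicon cells (± Renilla luciferase reporter) incubated with titrated compound at 37 °C; NS3 protease activity read by FRET peptide cleavage (20 uM EDANS/DABCYL substrate, 340/490 nm kinetic) or luciferase.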

[2] = modified method (with preincubation)

T1 sequence (Q9WMX2 2420-2992): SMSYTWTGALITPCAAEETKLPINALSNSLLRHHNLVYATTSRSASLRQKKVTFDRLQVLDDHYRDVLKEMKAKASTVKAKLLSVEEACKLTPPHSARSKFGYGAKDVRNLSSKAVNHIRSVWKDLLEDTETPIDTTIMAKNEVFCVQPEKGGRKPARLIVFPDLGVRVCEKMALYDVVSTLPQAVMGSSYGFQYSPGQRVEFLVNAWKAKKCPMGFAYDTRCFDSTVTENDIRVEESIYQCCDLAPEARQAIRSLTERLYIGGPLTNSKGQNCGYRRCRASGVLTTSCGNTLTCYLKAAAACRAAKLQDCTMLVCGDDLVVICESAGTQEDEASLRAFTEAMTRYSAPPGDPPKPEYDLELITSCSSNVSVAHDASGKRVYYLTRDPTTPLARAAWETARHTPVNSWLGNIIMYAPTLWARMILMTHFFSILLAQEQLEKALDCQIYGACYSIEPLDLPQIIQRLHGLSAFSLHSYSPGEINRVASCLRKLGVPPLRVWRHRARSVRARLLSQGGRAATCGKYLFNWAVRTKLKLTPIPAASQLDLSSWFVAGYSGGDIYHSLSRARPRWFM

Compound	IC50 [1, 2] [nM]	EC50 (HCV replicon) [nM]	IC50 ([1]; preincubation protocol) [nM]
COC(=O)/C=C/c1ccc(CN(C)S(=O)(=O)NC(=O)c2ccc3c(C4CCCCC4)c4n(c3c2)CC(=O)Nc2ccccc2-4)cc1	20 to 1000	10 to 1000	
CN(C)S(=O)(=O)NC(=O)c1ccc2c(C3CCCCC3)c3n(c2c1)CC(C(=O)N1CCOCC1)=Cc1ccncc1-3	20 to 1000	10 to 1000	
Cn1cnc(S(=O)(=O)NC(=O)c2ccc3c(C4CCCCC4)c4n(c3c2)CCCc2ncccc2-4)c1	20 to 1000	1000 to 10000	
N#CC1=Cn2c(c(C3CCCCC3)c3ccc(C(=O)O)cc32)-c2ccccc2C1	20 to 1000	1000 to 10000	
O=C(NC1(C(=O)OCc2ccccc2)CCCC1)c1ccc2c(C3CCCCC3)c3n(c2c1)CCCc1cc(O)ccc1-3	> 1000	1000 to 10000	
C[C@@H]1CN(C(=O)C2=Cc3ccccc3-c3c(C4CCCCC4)c4ccc(C(=O)O)cc4n3C2)C[C@H](C)O1	20 to 1000	10 to 1000	
COC(=O)c1ccc2c(C3CCCCC3)c3n(c2c1)C[C@@H](O)[C@@H](O)c1ccccc1-3	> 1000	1000 to 10000	
COC(=O)c1ccc2c(C3CCCCC3)c3n(c2c1)CC(C(=O)O)=Cc1c(OC)cccc1-3		1000 to 10000	1000 to 10000
O=C(O)c1ccc2c(C3CCCCC3)c3n(c2c1)C(C(=O)N1CCOCC1)CCc1ccccc1-3 (stereo not drawn)		> 3300	> 12500
O=C(O)c1ccc2c(C3CCCCC3)c3n(c2c1)CC(N1CCOCC1)Cc1ccccc1-3 (stereo not drawn)	20 to 1000	10 to 1000	
CNC(=O)C1Cc2ccccc2-c2c(C3CCCCC3)c3ccc(C(=O)NC4(C(=O)Nc5ccc(/C=C/C(=O)O)cc5)CCCC4)cc3n2C1 (stereo not drawn)	20 to 1000	10 to 1000	
C[C@@H]1CN(C(=O)C2=Cc3cc(F)ccc3-c3c(C4CCCCC4)c4ccc(C(=O)O)cc4n3C2)C[C@H](C)N1		50 to 1000	10 to 1000
O=C(O)c1ccc2c(C3CCCCC3)c3n(c2c1)CCN(C(=O)Nc1ccccc1)c1ccccc1-3	20 to 1000	1000 to 10000	
O=C(NS(=O)(=O)C1CC1)c1ccc2c(C3CCCCC3)c3n(c2c1)CCNc1ccccc1-3	20 to 1000	10 to 1000	
O=C(O)/C=C/c1ccc(NC(=O)C2(NC(=O)c3ccc4c(C5CCCCC5)c5n(c4c3)CCCc3ccccc3-5)CCNCC2)cc1 [drawing 160]	20 to 1000	10 to 1000	
Cc1cc(CNC(=O)c2ccc3c(C4CCCCC4)c4n(c3c2)CC(C(=O)N2C[C@@H](C)O[C@@H](C)C2)=Cc2ccccc2-4)n[nH]1		50 to 1000	10 to 1000
COc1ccc2c(c1)C=C(C(=O)N1CCC[C@@H](O)C1)Cn1c-2c(C2CCCCC2)c2ccc(C(=O)NS(=O)(=O)N(C)C)cc21		50 to 1000	10 to 1000
COC(=O)c1ccc2c(C3CCCCC3)c3n(c2c1)C(O)c1cc(OC)ccc1-3 (stereo not drawn)		> 100	> 1000
O=C(NS(=O)(=O)c1ccccc1)c1ccc2c(C3CCCCC3)c3n(c2c1)C[C@@H](O)[C@@H](O)c1ncccc1-3	20 to 1000	1000 to 10000	
CN(C)S(=O)(=O)NC(=O)c1ccc2c(C3CCCCC3)c3n(c2c1)CC(C(=O)N1CCOCC1)Cc1cccnc1-3 (stereo not drawn)	20 to 1000	10 to 1000	
O=C(O)/C=C/c1ccc(NC(=O)C2(NC(=O)c3ccc4c(C5CCCCC5)c5n(c4c3)CCCc3nccnc3-5)CCCC2)cc1	20 to 1000	< 100	
CS(=O)(=O)NC(=O)c1ccc2c(C3CCCCC3)c3n(c2c1)CC(C(=O)N1CCOCC1)=Cc1ccccc1-3	20 to 1000	10 to 1000	
O=C(NS(=O)(=O)N1CCCC1)c1ccc2c(C3CCCCC3)c3n(c2c1)CC(C(=O)N1CCOCC1)=Cc1ccccc1-3	20 to 1000	10 to 1000	
O=C(O)c1ccc2c(C3CCCCC3)c3n(c2c1)CC(O)CNc1ccccc1-3 (stereo not drawn)	20 to 1000	1000 to 10000	
CC(C)(C)OC(=O)N1CCCCn2c(c(C3CCCCC3)c3ccc(C(=O)O)cc32)-c2cnccc21	> 1000	> 10000	
CN(C)S(=O)(=O)NC(=O)c1ccc2c(C3CCCCC3)c3n(c2c1)C[C@@H](O)[C@@H](O)c1ccccc1-3	> 1000	10 to 1000	
O=C1Cn2c(c(C3CCCCC3)c3ccc(C(=O)NS(=O)(=O)N4CCN(c5ccccc5)CC4)cc32)-c2ccccc2N1	20 to 1000	1000 to 10000	
CN(C)CCNC(=O)C1=Cc2ccccc2-c2c(C3CCCCC3)c3ccc(C(=O)NC4(C(=O)Nc5ccc6c(c5)cc(C(=O)O)n6C)CCCC4)cc3n2C1	20 to 1000	10 to 1000	
COC(=O)c1ccc2c(C3CCCCC3)c3n(c2c1)CC(C(=O)N(C)C)=Cc1ccccc1-3	> 1000	1000 to 10000	
CN1C(=O)Cn2c(c(C3CCCCC3)c3ccc(C(=O)NC4(C(=O)Nc5ccc6c(c5)cc(C(=O)O)n6C)CCCC4)cc32)-c2ccccc21	20 to 1000	10 to 1000	
